Laboratory results from patent EP4603477A1, “INHIBITORS OF THE CORONAVIRUS ACCESSORY PROTEIN ORF9B” (Consejo Superior De Investigaciones Científicas, priority 2024, dated 2025).
Read-outs that look alike come from different tables or passages of the source.

Key:
[1] = target: T1, Recombinant SARS-CoV-2 GST-ORF9b protein (Severe acute respiratory syndrome coronavirus 2, UniProt P0DTD2); assay: Surface plasmon resonance, ORF9b-ORF9b homotypic interaction; type: binding; settings: mobile-phase GST-ORF9b pre-incubated with 5 µM compound
T1 construct: purchased BPS Bioscience
T1 sequence (P0DTD2 whole entry): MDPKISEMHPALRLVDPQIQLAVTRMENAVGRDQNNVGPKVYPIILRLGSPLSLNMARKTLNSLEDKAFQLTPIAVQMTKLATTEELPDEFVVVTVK

[2] = tested on: A549.ORF9b cells; type: cell-based
[3] = tested on: THP-1.ORF9b cells; type: cell-based
[4] = tested on: A549.ORF9b cells; assay: Fluorescence microscopy, co-localization of ORF9b and mitochondria; type: cell-based
[5] = tested on: A549.ORF9b; type: cell-based; settings: A549.ORF9b cells; 10 ng/mL interferon-β1 4 h, inhibitor 1 µM 1 h
[6] = tested on: THP-1. ORF9b cells; type: cell-based; settings: 10 ng/mL interferon-β1 4 h, inhibitor 1 µM 1 h
[7] = physchem
[8] = tested on: A549wt cells; type: cell-based; settings: both without and with LPS+ATP, MCC950 for the last 3 h
[9] = A549 lung epithelial cells, low micromolar concentrations (Fig. 9A)
[10] = THP-1 monocyte-macrophage cells, low micromolar concentrations (Fig. 9B)

SMILES	Binding of GST-ORF9b to immobilized GST-ORF9b [1]	inhibition of ORF9b-induced caspase-1 activation ([2]; A549.ORF9b cells)	inhibition of the activation of caspase-1 induced by ORF9b ([2]; A549.ORF9b cells, 5 µM, 3 h (Fig. 6))	inhibition of ORF9b-induced caspase-1 activation ([3]; THP-1.ORF9b cells)	inhibition of the activation of caspase-1 induced by ORF9b ([3]; THP-1.ORF9b cells, 5 µM, 3 h (Fig. 7))	mitochondrial eviction of ORF9b ([4]; 2.5 µM, 4 h (Fig. 8))	mitochondrial eviction of ORF9b ([4]; low micromolar concentrations)	restoration of IFN-β induced expression of OAS3 and ISG15 mitigated by ORF9b [5]	restoration of IFN-β induced expression of OAS3 and ISG15 mitigated by ORF9b [6]	logP [7]	inhibition of the activation of caspase-1 induced by ORF9b [2, 9]	inhibition of the activation of caspase-1 induced by ORF9b [3, 10]	mitochondrial eviction of ORF9b ([4]; 5 µM, 4 h (Fig. 11))	induction of caspase-1 activation by SARS-CoV-2 accessory proteins [8]
Nc1ccc(F)c(NC(=O)Cc2ccccc2)c1 [Compound 1]	significantly inhibited	significantly inhibited	inhibits	significantly inhibited	inhibits	causes mitochondrial eviction	rapid and remarkable partial eviction	largely restored	largely restored	2.14	–	–	–	–
Nc1ccc(F)c(NC(=O)c2cccc3ccccc23)c1 [Compound 2, N-(5-Amino-2-fluorophenyl)-1-naphthamide]	–	inhibited	–	inhibited	–	–	capable of causing mitochondrial eviction	largely restored	largely restored	3.19	inhibit	inhibit	induce mitochondrial eviction	–
Cc1ccc(N)c(NC(=O)Cc2ccc(F)cc2)c1 [Compound 3, N-(2-Amino-5-methylphenyl)-2-(4-fluorophenyl)acetamide]	–	much lower or no	–	much lower or no	–	–	did not cause mitochondrial eviction	–	–	2.63	–	–	–	–
COc1ccc(CC(=O)Nc2cc(N)ccc2F)cc1 [Compound 4, N-(5-Amino-2-fluorophenyl)-2-(4-methoxyphenyl)acetamide]	–	inhibited	–	inhibited	–	–	–	–	–	2.01	inhibit	inhibit	–	–
Nc1ccc(F)c(NC(=O)Cc2ccc(Cl)cc2)c1 [Compound 5, N-(5-Amino-2-fluorophenyl)-2-(4-chlorophenyl)acetamide]	–	inhibited	–	inhibited	–	–	–	–	–	2.7	inhibit	inhibit	–	–
O=C(Cc1ccc(Cl)cc1)Nc1cc([N+](=O)[O-])ccc1F [Compound 6, 2-(4-Chlorophenyl)-N-(2-fluoro-5-nitrophenyl)acetamide]	–	inhibited	–	inhibited	–	–	capable of causing mitochondrial eviction	largely restored	largely restored	3.47	inhibit	inhibit	induce mitochondrial eviction	–
COc1ccc(CC(=O)Nc2cc([N+](=O)[O-])ccc2F)cc1 [Compound 7, N-(2-Fluoro-5-nitrophenyl)-2-(4-methoxyphenyl)acetamide]	–	inhibited	–	inhibited	–	–	–	–	–	2.98	inhibit	inhibit	–	–
Cc1ccc([N+](=O)[O-])c(NC(=O)Cc2ccc(F)cc2)c1 [Compound 8, N-(2-Nitro-5-methylphenyl)-2-(4-fluorophenyl)acetamide]	–	much lower or no	–	much lower or no	–	–	did not cause mitochondrial eviction	–	–	3.27	–	–	–	–
O=C(Cc1ccccc1)Nc1cc([N+](=O)[O-])ccc1F [Compound 9, N-(2-Fluoro-5-nitrophenyl)-2-phenylacetamide]	–	–	–	–	–	–	–	–	–	2.85	–	–	–	–
CC(C)(O)c1coc(S(=O)(=O)NC(=O)Nc2c3c(cc4c2CCC4)CCC3)c1 [MCC950, reference compound]	–	–	–	–	–	–	–	–	–	–	–	–	–	abolished
